According to patent US12384776B2, “Compounds and uses thereof” (Foghorn Therapeutics Inc., priority 2019, dated 2025):

Biological target: Nanoluciferase-BRD9 fusion protein (3×FLAG-NLuc-BRD9) in SYO-1 cells (Homo sapiens (Human), UniProt Q9H8M2)
Test: SYO1 BRD9 NanoLuc degradation assay
Type: cell-based
Conditions: SYO-1 cells expressing 3×FLAG-NLuc-BRD9, 6 hours incubation, top dose 1 μM
Method in brief: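 Degradation read as loss of NLuc signal after 6 h compound exposure (1 μM top final, 3-fold steps, 10 points, duplicates) in SYO-1 cells stably carrying 3×FLAG-NLuc-BRD9. Signal normalised between DMSO-treated cells and cells given 1 μM of a known BRD9 degrader.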

Nanoluciferase-BRD9 fusion protein (3×FLAG-NLuc-BRD9) in SYO-1 cells, sequence (Q9H8M2 whole entry, the tested form may be a part): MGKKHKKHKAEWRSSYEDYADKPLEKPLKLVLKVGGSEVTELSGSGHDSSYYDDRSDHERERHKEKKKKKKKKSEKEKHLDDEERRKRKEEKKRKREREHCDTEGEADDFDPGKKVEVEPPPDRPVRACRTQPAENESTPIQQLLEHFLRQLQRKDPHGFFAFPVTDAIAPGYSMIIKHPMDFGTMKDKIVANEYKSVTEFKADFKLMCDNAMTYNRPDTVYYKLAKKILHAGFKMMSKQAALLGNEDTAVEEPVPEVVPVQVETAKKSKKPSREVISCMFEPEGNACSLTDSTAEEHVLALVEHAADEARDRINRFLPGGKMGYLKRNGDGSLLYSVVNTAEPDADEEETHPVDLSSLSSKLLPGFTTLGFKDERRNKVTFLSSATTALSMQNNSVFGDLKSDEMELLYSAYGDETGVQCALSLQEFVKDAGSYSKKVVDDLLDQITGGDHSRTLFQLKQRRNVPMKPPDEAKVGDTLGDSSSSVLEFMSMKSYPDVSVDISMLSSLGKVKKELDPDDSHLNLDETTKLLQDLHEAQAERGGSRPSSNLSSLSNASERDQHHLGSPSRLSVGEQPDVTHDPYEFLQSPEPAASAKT

Compound	IC50 [µM]
CNC(=O)N1CCc2c(-c3cc(OC)c(CN4CCOC(CCN5CCN(c6ccc7c(c6)C(=O)N(C6CCC(=O)NC6=O)C7=O)CC5)C4)c(OC)c3)cn(C)c(=O)c2C1 (stereo not shown) [Compound D152]	< 0.01
CNC(=O)N1CCc2c(-c3cc(OC)c(CN4CCC(CCN5C6CC5CN(c5ccc7c(c5)C(=O)N(C5CCC(=O)NC5=O)C7=O)C6)CC4)c(OC)c3)cn(C)c(=O)c2C1 (stereo not shown) [Compound D153]	0.01 to 0.1
CNC(=O)N1CCc2c(-c3cc(OC)c(CN4CCC(C(F)(F)CN5CCN(c6ccc7c(c6)C(=O)N(C6CCC(=O)NC6=O)C7=O)CC5)CC4)c(OC)c3)cn(C)c(=O)c2C1 (stereo not shown) [Compound D154]	< 0.01
CNC(=O)N1CCc2c(-c3cc(OC)c(CN4CCC(CCN5CCN(c6ccc7c(c6)C(=O)N(C6CCC(=O)NC6=O)C7=O)CC5)C(F)(F)C4)c(OC)c3)cn(C)c(=O)c2C1 (stereo not shown) [Compound D155]	< 0.01
CNC(=O)N1CCc2c(-c3cc(OC)c(CNC4CC45CCN(c4ccc6c(c4)C(=O)N(C4CCC(=O)NC4=O)C6=O)C5)c(OC)c3)cn(C)c(=O)c2C1 (stereo not shown) [Compound D156]	< 0.01
CNC(=O)N1CCc2c(-c3cc(OC)c(CNC4CC5(C4)CN(c4ccc6c(c4)C(=O)N(C4CCC(=O)NC4=O)C6=O)C5)c(OC)c3)cn(C)c(=O)c2C1 (stereo not shown) [Compound D158]	< 0.01
CNC(=O)N1CCc2c(-c3cc(OC)c(CN4CC(CN5CC6(CCN(c7ccc8c(c7)C(=O)N(C7CCC(=O)NC7=O)C8=O)C6)C5)C4)c(OC)c3)cn(C)c(=O)c2C1 (stereo not shown) [Compound D167]	0.01 to 0.1
CNC(=O)N1CCc2c(-c3cc(OC)c(CN4CC(CN5CCN(c6ccc7c(c6)C(=O)N(C6CCC(=O)NC6=O)C7=O)CC5)C4)c(OC)c3)cn(C)c(=O)c2C1 (stereo not shown) [Compound D168]	0.01 to 0.1
CNC(=O)N1CCc2c(-c3cc(OC)c(CN4CCC(CN5CCN(c6ccc7c(c6)C(=O)N(C6CCC(=O)NC6=O)C7=O)CC5)C4)c(OC)c3)cn(C)c(=O)c2C1 (stereo not shown) [Compound D169]	< 0.01
CNC(=O)N1CCc2c(-c3cc(OC)c(CN4CCN(C5CCN(c6ccc7c(c6)C(=O)N(C6CCC(=O)NC6=O)C7=O)CC5)CC4)c(OC)c3)cn(C)c(=O)c2C1 (stereo not shown) [Compound D170]	< 0.01
CNC(=O)N1CCc2c(-c3cc(OC)c(CN4CCC(CCN(C)C5CN(c6ccc7c(c6)C(=O)N(C6CCC(=O)NC6=O)C7=O)C5)CC4)c(OC)c3)cn(C)c(=O)c2C1 (stereo not shown) [Compound D171]	< 0.01
CNC(=O)N1CCc2c(-c3cc(OC)c(CN4CCC(CCN5CC6CC5CN6c5ccc6c(c5)C(=O)N(C5CCC(=O)NC5=O)C6=O)CC4)c(OC)c3)cn(C)c(=O)c2C1 (stereo not shown) [Compound D172]	< 0.01
CNC(=O)N1CCc2c(-c3cc(OC)c(CN4CCC(CCN(C)C5CCCN(c6ccc7c(c6)C(=O)N(C6CCC(=O)NC6=O)C7=O)C5)CC4)c(OC)c3)cn(C)c(=O)c2C1 (stereo not shown) [Compound D173]	< 0.01
CNC(=O)N1CCc2c(-c3cc(OC)c(CN4CCC(C5(CN6CCN(c7ccc8c(c7)C(=O)N(C7CCC(=O)NC7=O)C8=O)CC6)CC5)CC4)c(OC)c3)cn(C)c(=O)c2C1 (stereo not shown) [Compound D174]	< 0.01
CNC(=O)N1CCc2c(-c3cc(OC)c(CN4CCC5(CC4)CN(C(=O)CCN4CCN(c6ccc7c(c6)C(=O)N(C6CCC(=O)NC6=O)C7=O)CC4)CCO5)c(OC)c3)cn(C)c(=O)c2C1 (stereo not shown) [Compound D175]	0.1 to 1
CNC(=O)N1CCc2c(-c3cc(OC)c(CN4CC5(CCC(N6Cc7cc8c(cc7C6)C(=O)N(C6CCC(=O)NC6=O)C8=O)CC5)C4)c(OC)c3)cn(C)c(=O)c2C1 (stereo not shown) [Compound D176]	0.01 to 0.1
CNC(=O)N1CCc2c(-c3cc(OC)c(CN4CC5(CC(N6Cc7cc8c(cc7C6)C(=O)N(C6CCC(=O)NC6=O)C8=O)C5)C4)c(OC)c3)cn(C)c(=O)c2C1 (stereo not shown) [Compound D177]	0.01 to 0.1
CNC(=O)N1CCc2c(-c3cc(OC)c(CN4CCC(CCCN5Cc6cc7c(cc6C5)C(=O)N(C5CCC(=O)NC5=O)C7=O)CC4)c(OC)c3)cn(C)c(=O)c2C1 (stereo not shown) [Compound D178]	< 0.01
CNC(=O)N1CCc2c(-c3cc(OC)c(CN4CCC(CCN5Cc6cc7c(cc6C5)C(=O)N(C5CCC(=O)NC5=O)C7=O)CC4)c(OC)c3)cn(C)c(=O)c2C1 (stereo not shown) [Compound D179]	< 0.01
CNC(=O)N1CCc2c(-c3cc(OC)c(CN4CCC(CN5Cc6cc7c(cc6C5)C(=O)N(C5CCC(=O)NC5=O)C7=O)CC4)c(OC)c3)cn(C)c(=O)c2C1 (stereo not shown) [Compound D180]	< 0.01
CNC(=O)N1CCc2c(-c3cc(OC)c(CN4CCC5(CCC(N6Cc7cc8c(cc7C6)C(=O)N(C6CCC(=O)NC6=O)C8=O)CC5)CC4)c(OC)c3)cn(C)c(=O)c2C1 (stereo not shown) [Compound D181]	< 0.01
CNC(=O)N1CCc2c(-c3cc(OC)c(CN4CCC5(CC4)CC(N4Cc6cc7c(cc6C4)C(=O)N(C4CCC(=O)NC4=O)C7=O)C5)c(OC)c3)cn(C)c(=O)c2C1 (stereo not shown) [Compound D182]	< 0.01
CNC(=O)N1CCc2c(-c3cc(OC)c(CN4CCC5(CC4)CC(Oc4ccc6c(c4)C(=O)N(C4CCC(=O)NC4=O)C6=O)C5)c(OC)c3)cn(C)c(=O)c2C1 (stereo not shown) [Compound D183]	< 0.01

Compound	IC50 [µM]
COc1cc(-c2cn(C)c(=O)c3c2CCN(C(=O)NCCN2CCC4C2CN4c2ccc4c(c2)C(=O)N(C2CCC(=O)NC2=O)C4=O)C3)cc(OC)c1CN(C)C (stereo not shown) [Compound D184]	0.01 to 0.1
COc1cc(-c2cn(C)c(=O)c3c2CCN(C(=O)NCCN2CCC4(CCN4c4ccc5c(c4)C(=O)N(C4CCC(=O)NC4=O)C5=O)C2)C3)cc(OC)c1CN(C)C (stereo not shown) [Compound D185]	0.1 to 1
COc1cc(-c2cn(C)c(=O)c3c2CCN(C(=O)NCCN2CCC(OC4CCN(c5ccc6c(c5)C(=O)N(C5CCC(=O)NC5=O)C6=O)CC4)CC2)C3)cc(OC)c1CN(C)C (stereo not shown) [Compound D186]	0.01 to 0.1
COc1cc(-c2cn(C)c(=O)c3c2CCN(C(=O)NCCN2CCC4C(C2)CN4c2ccc4c(c2)C(=O)N(C2CCC(=O)NC2=O)C4=O)C3)cc(OC)c1CN(C)C (stereo not shown) [Compound D187]	0.01 to 0.1
COc1cc(-c2cn(C)c(=O)c3c2CCN(C(=O)NCCN2CCC4CCN(c5ccc6c(c5)C(=O)N(C5CCC(=O)NC5=O)C6=O)C4C2)C3)cc(OC)c1CN(C)C (stereo not shown) [Compound D188]	0.1 to 1
COc1cc(-c2cn(C)c(=O)c3c2CCN(C(=O)NCCN2CCC4(C2)CN(c2ccc5c(c2)C(=O)N(C2CCC(=O)NC2=O)C5=O)C4)C3)cc(OC)c1CN(C)C (stereo not shown) [Compound D189]	0.1 to 1
COc1cc(-c2cn(C)c(=O)c3c2CCN(C(=O)NCCN2CCC4(CCN(c5ccc6c(c5)C(=O)N(C5CCC(=O)NC5=O)C6=O)C4)C2)C3)cc(OC)c1CN(C)C (stereo not shown) [Compound D190]	0.1 to 1
COc1cc(-c2cn(C)c(=O)c3c2CCN(C(=O)NCCN2CC4(CCN(c5ccc6c(c5)C(=O)N(C5CCC(=O)NC5=O)C6=O)CC4)C2)C3)cc(OC)c1CN(C)C (stereo not shown) [Compound D191]	0.1 to 1
COc1cc(-c2cn(C)c(=O)c3c2CCN(C(=O)NCCN2CC4(CCN4c4ccc5c(c4)C(=O)N(C4CCC(=O)NC4=O)C5=O)C2)C3)cc(OC)c1CN(C)C (stereo not shown) [Compound D192]	0.1 to 1
COc1cc(-c2cn(C)c(=O)c3c2CCN(C(=O)NCC2CC4(CCN(CCCCN5CCN(c6ccc7c(c6)C(=O)N(C6CCC(=O)NC6=O)C7=O)CC5)CC4)O2)C3)cc(OC)c1CN(C)C (stereo not shown) [Compound D193]	≥ 1
COc1cc(-c2cn(C)c(=O)c3c2CCN(C(=O)NCC2CC4(C2)CN(CCCOc2ccc5c(c2)C(=O)N(C2CCC(=O)NC2=O)C5=O)C4)C3)cc(OC)c1CN(C)C (stereo not shown) [Compound D194]	0.1 to 1
CNC(=O)N1CCc2c(-c3cc(OC)c(CN4CCC(CN(C)C5CCN(c6ccc7c(c6)C(=O)N(C6CCC(=O)NC6=O)C7=O)CC5)CC4)c(OC)c3)cn(C)c(=O)c2C1 (stereo not shown) [Compound D195]	< 0.01
CNC(=O)N1CCc2c(-c3cc(OC)c(CN4CCC(CCN5CC6CN(c7ccc8c(c7)C(=O)N(C7CCC(=O)NC7=O)C8=O)CC6C5)CC4)c(OC)c3)cn(C)c(=O)c2C1 (stereo not shown) [Compound D196]	< 0.01
CNC(=O)N1CCc2c(-c3cc(OC)c(CN4CCC(CCN(C)C5CCN(c6ccc7c(c6)C(=O)N(C6CCC(=O)NC6=O)C7=O)C5)CC4)c(OC)c3)cn(C)c(=O)c2C1 (stereo not shown) [Compound D197]	< 0.01
CNC(=O)N1CCc2c(-c3cc(OC)c(CN4CCC(CCN5CCCN(c6ccc7c(c6)C(=O)N(C6CCC(=O)NC6=O)C7=O)CC5)CC4)c(OC)c3)cn(C)c(=O)c2C1 (stereo not shown) [Compound D198]	< 0.01
CNC(=O)N1CCc2c(-c3cc(OC)c(CN4CCC(CCN5CC6(C5)CN(c5ccc7c(c5)C(=O)N(C5CCC(=O)NC5=O)C7=O)C6)CC4)c(OC)c3)cn(C)c(=O)c2C1 (stereo not shown) [Compound D199]	< 0.01
CNC(=O)N1CCc2c(-c3cc(OC)c(CN4CCC(CCN(C)C5CCN(c6ccc7c(c6)C(=O)N(C6CCC(=O)NC6=O)C7=O)CC5)CC4)c(OC)c3)cn(C)c(=O)c2C1 (stereo not shown) [Compound D200]	< 0.01
CNC(=O)N1CCc2c(-c3cc(OC)c(CN4CCC(N5CCN(c6ccc7c(c6)C(=O)N(C6CCC(=O)NC6=O)C7=O)CC5)CC4)c(OC)c3)cn(C)c(=O)c2C1 (stereo not shown) [Compound D201]	< 0.01
CNC(=O)N1CCc2c(-c3cc(OC)c(CN4CCC5(CC4)CN(CCN4CCN(c6ccc7c(c6)C(=O)N(C6CCC(=O)NC6=O)C7=O)CC4)CCO5)c(OC)c3)cn(C)c(=O)c2C1 (stereo not shown) [Compound D202]	0.01 to 0.1
CNC(=O)N1CCc2c(-c3cc(OC)c(CN4CCC5(CC4)CN(C(=O)CCCOc4ccc6c(c4)C(=O)N(C4CCC(=O)NC4=O)C6=O)CCO5)c(OC)c3)cn(C)c(=O)c2C1 (stereo not shown) [Compound D203]	0.01 to 0.1
COc1cc(-c2cn(C)c(=O)c3c2CCN(C(=O)NCCN2CCC(OC4CCN(c5ccc6c(c5)C(=O)N(C5CCC(=O)NC5=O)C6=O)CC4)C2)C3)cc(OC)c1CN(C)C (stereo not shown) [Compound D204]	0.1 to 1
COc1cc(-c2cn(C)c(=O)c3c2CCN(C(=O)NCCN2CCC(C4CCN(c5ccc6c(c5)C(=O)N(C5CCC(=O)NC5=O)C6=O)CC4)C2)C3)cc(OC)c1CN(C)C (stereo not shown) [Compound D205]	0.01 to 0.1
COc1cc(-c2cn(C)c(=O)c3c2CCN(C(=O)NCCN2CCC(OCC4CCN(c5ccc6c(c5)C(=O)N(C5CCC(=O)NC5=O)C6=O)CC4)C2)C3)cc(OC)c1CN(C)C (stereo not shown) [Compound D206]	0.1 to 1
